# Publication PMC5907308, “21st Brazilian Diabetes Society Congress” (Diabetology & Metabolic Syndrome, 2018)
# Assays:
# pregnancies = details: general population: 3-4%; no reference given; cited from earlier work
# Source text: Discussion: In transplanted pregnant women, hypertension and DM increase the risk of prematurity, restricted intrauterine growth (IUGR) and graft loss. […] In addition, there is a higher rate of small newborns for GI. […] As for immunosuppressants, there are few reports. Tacrolimus appears safe (prevalence of congenital malformations: 4-5% ...
# [1] = system: patients submitted to liver transplantation; assay type: in vivo, human; details: Tacrolimus 95% CI 1.2–32.5, p = 0.029; PDN 95% CI 2.4–21, 8, p < 0.001
# Source text: A total of 152 patients were included. […] Comparisons were done with Chi square tests and analysis of independent risk factors with multivariate logistic regression.
# [2] = system: subjects with T2D inadequately controlled on IGlarU100 and metformin; assay: DUAL V 26-week open-label treat-to-target trial; assay type: in vivo, human
# [3] = system: patients with T2DM uncontrolled on oral antidiabetic agents; assay: LixiLan-O, time to glycemic control (Kaplan–Meier), post hoc; assay type: in vivo, human; details: LL-O
# Protocol: The Kaplan–Meier method was used to estimate time to control, defined as time (days) to first achieve HbA1c < 7% or FPG ≤ 130 mg/dL. […] In addition to lowering FPG via iGlar, iGlarLixi lowers PPG, likely contributing to its greater efficacy in achieving glycemic control vs. iGlar alone. […] Study codes: NCT02058160 and NCT02058147. This is an ENCORE abstract previously presented at ADA 2017. Funding and editorial support provided by Sanofi (Fig. 1)
# [4] = system: elderly patients with T2DM; assay: Pilot randomized trial Ideg vs Iglar-U100 with CGM; assay type: in vivo, human; details: for 24-h mean glucose, median (minimum–maximum): CGM after 2 weeks, n = 5 per group, P = 0.84; for standard deviation from the mean glucose, median (minimum–maximum): CGM, P = 0.22
# Protocol: Methods: It is a pilot study with ten patients during six weeks, randomized, prospective, controlled and open label trial. Inclusion criteria: T2DM, age over 60 years, A1C from 7 to 10%, use of NPH insulin with or without oral antidiabetic drugs. […] They were evaluated for glucose variability (GV) and HYPOs by continuous glucose monitoring (CGM) after 2 weeks of treatment with either insulin.
# patient = assay: Neonatal diabetes, therapeutic test with sulfonylurea, case report; assay type: in vivo, human; details: oral, gradual elevation, insulin suspended; discharged on 20 mg/day
# Protocol: Case presentation: A patient, presenting hypoactivity, sialorrhea and seizures 2 days ago, was admitted to a university hospital. During hospitalization they were evaluated by neurology that identified a discrete delay in neuropsychomotor development. […] Serologies for toxoplasmosis, rubella and measles negative. History of maternal varicella during gestation. […] Due to the delay in carrying out a genetic study to close the diagnosis, material was collected and sent to the genetic service and prescribed sulfonylurea (glibenclamide) as a therapeutic test. The oral medication was initiated in low doses with gradual elevation, and progressive reduction of the insulin until its suspension. […] They were discharged from the hospital using glibenclamide 20 mg/day. The patient is in outpatient follow-up at the endocrinology department of the João de Barros Barreto University Hospital. Endocrinology work team is still waiting for genetic analysis.
# [5] = system: inpatient population with diabetes; assay: Degludeca vs NPH, both with Regular Insulin, in hospital (8 patients per group); details: human, in vivo
# Protocol: Methods: We conducted a retrospective, randomized study to compare the efficacy and safety of different basal insulin (Degludeca versus NPH), both on Basal-bolus insulin regimen on inpatient population with diabetes. Data were collected from the medical records, between May, 2016 until April, 2017. 8 patients were selected and randomized in each group. We established optimal glycemic control for patients with capillary glucose below 140 mg/dl in fasting and before main meals and below 180 mg/dL for 2 h after main meals. The criteria for excellent glycemic control was to achieve at least 70% within the previously established target and for acceptable glycemic control, those patients who had between 60% and 69% of the glycemia within the established target. The total number of hypoglycemia was assessed and classified as severe hypoglycemia (< 40 mg/dl) and mild hypoglycemia (< 70 mg/dl) as well as nocturnal hypoglycemia. In addition, the time required to achieve excellent or acceptable glycemic control was also analyzed.
# patients with T2D = assay: Network meta-analysis Gla-300 vs IDeg (inputs of the cost-effectiveness model); assay type: in vivo, human; details: estimated by network meta-analysis
# Source text: Methods: This modelling analysis simulated a cohort representing patients in the EDITION 2 and 3 trials using the IMS Core Diabetes Model with a time horizon of 50 years (lifetime) for 1,000,000 patients starting at 62 years old. […] The treatment cost was $1,561 per SHE and $13.65 per NSHE (2015 $). Utilities to estimate quality-adjusted life years (QALYs) for multiple comorbidities were applied using the minimum utility approach. A disutility of -0.0118 was applied for SHE, and method of diminishing marginal disutility for NSHE.
# patient with DRIASM = assay: Insulin degludec in DRIASM, case report; assay type: in vivo, human
# Source text: Discussion: DRIASM is a rare syndrome, characterized by extreme resistance to SC and IM insulin, whose pathophysiology remains unknown. There are few treatments available and most are ineffective. The use of intraperitoneal insulin pump is the therapy with the best result so far, but it is not available in Brazil. Another possibility is the PTA, initially proposed by our group and then performed in other countries. […] After SC injection, the di-hexamers form a stable depot of multi-hexamer chains, with gradual dissociation of these chains into absorbed monomers.
# [6] = system: patients with DM 1 and DRIASM; assay: Case reports: IDeg in resistance to subcutaneous and intramuscular insulin (DRIASM); assay type: in vivo, human; details: patient 1; IDeg since December 2015
# Protocol: It was suspected of diabetes mellitus with resistance to insulin administered subcutaneously or intramuscularly (DRIASM). […] After that it was decided to perform a therapeutic test with IDeg. […] They remained in use of IDeg 80 UI/d and lispro 600 UI/d. […] An insulin challenge test was performed with SC and IM NPH/Glargina/Detemir and IV regular insulin. […] They remained in use of IDeg 80 UI/d and aspart 2000 UI/d.
# child with CGL type 2 = assay: Case report: high doses of insulin in congenital generalized lipodystrophy; assay type: in vivo, human
# Protocol: Case: Child with clinical diagnosis of CGL type 2 and diagnosis of diabetes for 1 year. Using Glargina and Lispro insulin basal/bolus (5.1 IU/kg/day) presented mean daily capillary glycemia above 600 mg/dl, associated with irritability, low weight and voracious appetite. Interned for intravenous insulin therapy and nutritional adjustment with standardized diet of 1600 kcal/day fractionated in 7 meals. Initiated continuous infusion of regular insulin (RI), 6.1UI/kg/day. […] Subsequently, it was modified to intramuscular administration, in 5 application times, without differences in glycemic averages. On the 36 th day, Degludeca insulin was introduced (9.3 IU/kg/day) associated with RI (18.2 U/kg/day), evolving within the first 24 h with improved glycemia (180 ± 42 mg/dl). […] After approximately fivefold increase in the initial insulin dose, there was improvement in glycemia, irritability, weight gain and decreased appetite.
# type 2 diabetic patient = assay: Case report: liraglutide added to insulin degludec and metformin; assay type: in vivo, human; details: 30 days of Insulin Degludec 16U with metformin
# Protocol: patient one, type 2 diabetic for 3 years, using Gliclazide 60 mg/day and Metformin 1500 mg/day. They reported asthenia and difficulty losing weight. […] To optimize patient glycemic control and weight loss, Liraglutide 1.2 mg/day was initiated. […] The insulin dose was reduced to 10 U and reassessed in 30 days for possible discontinuation of insulin therapy. GLP- 1 receptor agonists stimulate insulin secretion in a […] manner, inhibit glucagon secretion and hepatic glucose output, delay gastric emptying, induce satiety, reduce appetite, and cause weight loss. […] It is a therapeutic option with action well established in weight loss, metabolic and glycemic improvement in the DM2 patient. However, its action on HbA1C reduction was independent of weight loss, evidencing intensive glycemic control with HbA1C between 6.5 and 7.0% even with discrete or even absent weight loss.
# T1D patients < 18 years = assay: Real-world clinical follow-up of T1D patients < 18 years switched to insulin degludec; assay type: in vivo, human; details: n = 9
# Source text: Information about HbA1c, insulin dose, weight and frequency of hypoglycaemia (self-reported by patients/parents) were collected in every consultant.
# [7] = system: patient with mucormycosis; assay: Oral mucormycosis in a diabetic patient, case report; assay type: in vivo, human; details: treated for 10 days
# Source text: Case presentation: person, admitted with diabetic ketoacidosis. On the 5th day of hospitalization, they complained of odynophagia, without other symptoms. On examination of the oral cavity, was found an ulcerated, infiltrative, whitish, and non-removable lesion in the soft palate (Fig. 1). No abnormalities were found in laboratory tests.
# [8] = system: patients with diabetic dyslipidemia; details: fenofibrate in combination with simvastatin, subgroup with diabetic dyslipidemia; ref [1]; cited from earlier work
# [9] = system: patient with squamous cell carcinoma of the hypopharynx; assay: Autoimmune diabetes after Nivolumab therapy, case report (A402); assay type: in vivo, human; details: anti-GAD and anti-ICA positive
# Source text: Case report: A patient with diagnosis of squamous cell carcinoma of the hypopharynx and pulmonary metastasis 2 years ago, after a failed treatment with conventional chemotherapy and radiotherapy, started a new class of cancer medication called Nivolumab—human immunoglobulin G4 monoclonal antibody. […] Investigation about the cause of the onset of diabetes founded positivity for diabetes antibodies, anti-GAD and anti-ICA, confirming autoimmune diabetes. Patient has been on intensive insulin therapy since then, with difficult glycemic control due to great glycemic variability.
# [10] = system: patient with metastatic lung adenocarcinoma; assay: New-onset diabetes on Nivolumab, case report (A288); assay type: in vivo, human
# Protocol: Case report: A patient was started on Nivolumab infusions every 15 days after chemotherapy refractory progressive metastatic lung adenocarcinoma, with no prior history of diabetes. After 4 infusions, they experienced xerostomia, polyuria, polydipsia and asthenia. Upon emergency evaluation, they were started on I.V. insulin after a capillary glycemia of 600 mg/dL. They were discharged home with 10 units of NPH insulin bedtime, with a referral to the endocrinologist. […] Insulin was titrated for a total daily dose of 0.5 UI/kg. […] Nivolumab was withdrawn and no glycemic improvement nor insulin dose reductions were noted.
# [11] = system: patient with diffuse cutaneous leishmaniasis; details: side effect, literature; no reference given; cited from earlier work
# [12] = system: patient with diffuse cutaneous leishmaniasis; assay: Pentamidine-induced diabetes mellitus, case report; assay type: in vivo, human
# Protocol: Case report: Patient two, diagnosis of diffuse cutaneous leishmaniasis in treatment since 1995 without therapeutic response after several treatments. Regular follow up with infectology, in maintenance treatment with miltefosine and in treatment with pentamidine every 30 days from January 2017, with a marked improvement of cutaneous lesions. During the follow-up, in consultation in July 2017, they complained of weight loss, polydipsia and nocturia, with serum glycemia of 901 mg/dL. Patient was referred to the hospital where they were diagnosed with a non-ketosis hyperosmolar state, with tests showing serum osmolarity of […] and glycated hemoglobin 10.31%. During hospitalization and after discharge maintained insulin use for glycemic control. Treatment of leishmaniasis with pentamidine was discontinued and will keep following-up with infectology and endocrinology.
compound,measurement,setting,value
C=CC[C@@H]1/C=C(\C)C[C@H](C)C[C@H](OC)[C@H]2O[C@@](O)(C(=O)C(=O)N3CCCC[C@H]3C(=O)O[C@H](/C(C)=C/[C@@H]3CC[C@@H](O)[C@H](OC)C3)[C@H](C)[C@@H](O)CC1=O)[C@H](C)C[C@@H]2OC [Tacrolimus],prevalence of congenital malformations,pregnancies,4-5%
same,"independent risk factor for PTDM, OR",[1],6.3
insulin glargine [Gla-100],mean fasting SMBG after 26 weeks,[2]; NS,5.6 mmol/L
same,Mean HbA1c after 26 weeks of treatment,[2]; in vivo,7.1%
same,"Mean HbA1c, baseline",[2]; in vivo,8.2%
same,"Days to first HbA1c <7%, median",[3],166.0 days
same,"24-h mean glucose, median (minimum–maximum)",[4],169 (138–193) mg/dL
same,"standard deviation from the mean glucose, median (minimum–maximum)",[4],45 (41–66)
COc1ccc(Cl)cc1C(=O)NCCc1ccc(S(=O)(=O)NC(=O)NC2CCCCC2)cc1 [glibenclamide],clinical evolution,patient,good glycemic control and improved neurological symptoms
insulin degludec [IDeg],"time to achieve excellent glycemic control, average",[5],4 days
same,A1C reduction over 24 weeks,patients with T2D,0.98%
same,treatment of DRIASM,"patient with DRIASM; case report, extreme resistance to SC and IM insulin","effective in the treatment of DRIASM, with reduction in hospital admissions and DKA episodes"
same,absorption and plasma glucose in test,patient with DRIASM; differently from all previously basal insulins,able to be absorbed and to reduce plasma glucose
same,hospitalizations due to DKA,[6],reduction of hospitalizations
same,blood glucose level,child with CGL type 2; after the first 24 h of Degludeca with RI,232.6 ± 74.7 mg/dL
same,glycemia,child with CGL type 2; first 24 h of Degludeca 9.3 IU/kg/day with RI 18.2 U/kg/day,180 ± 42 mg/dL
same,fasting glycemia (GJ),type 2 diabetic patient,171 mg/dL
same,HbA1c,type 2 diabetic patient; […] before,8.2%
same,Median HbA1c at 6 months after switch,T1D patients < 18 years,7.52%
same,Median HbA1c before switch,T1D patients < 18 years; on previous basal insulin or CSII,8.17%
same,"24-h mean glucose, median (minimum–maximum)",[4],168 (151–206) mg/dL
same,"standard deviation from the mean glucose, median (minimum–maximum)",[4],69 (42– 83)
C[C@@H]1[C@H](O)[C@@H](C)/C=C/C=C/C=C/C=C/C=C/C=C/C=C/[C@H](O[C@@H]2O[C@H](C)[C@@H](O)[C@H](N)[C@@H]2O)C[C@@H]2O[C@](O)(C[C@@H](O)C[C@@H](O)[C@H](O)CC[C@@H](O)C[C@@H](O)CC(=O)O[C@H]1C)C[C@H](O)[C@H]2C(=O)O [amphotericin B],clinical response,[7],favorable response
CC(C)OC(=O)C(C)(C)Oc1ccc(C(=O)c2ccc(Cl)cc2)cc1 [fenofibrate],primary outcomes reduced compared to placebo,[8],about 30%
Nivolumab,presentation after the third cycle,[9],"hyperglycemia, polyuria and polydipsia"
same,capillary glycemia,"[10]; after 4 infusions, every 15 days",600 mg/dL
same,C-peptide,[10]; in vivo,0.34 ng/dL
same,possible adverse event,[10]; in vivo,New-onset diabetes presenting with Diabetic Ketoacidosis and low levels of Cpeptide
N=C(N)c1ccc(OCCCCCOc2ccc(C(=N)N)cc2)cc1 [pentamidine],"hyperglycemia reported, cases",[11],1-5%
same,glycated hemoglobin,[12]; in vivo,10.31%
same,serum osmolarity,[12]; non-ketosis hyperosmolar state,306 mOsm/L
same,serum glycemia,"[12]; pentamidine every 30 days from January 2017, July 2017",901 mg/dL
